Test results: patent US5340818A, “Methods and compositions for inhibiting tumor cell growth” (priority 1993, dated 1994)
Values joined by “and” are separate entries in the source; they are usually repeats but may differ in a detail not shown here. Equal entries are not always repeated. “Also recorded” adds a separate entry of the source. Where two headings read alike, the source gives them in different places.

Legend:
[1] = system: DNA synthesis in HL-60 cells; test: Inhibition of [3H-methyl]dThd incorporation into DNA of HL-60 cells; type: cell-based, human; settings: Homo sapiens, HL-60, at 0.03 mg/mL; read-out: % Inhibition of Precursor Incorporation, DNA
Summary of the method: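 HL-60 cells, 2.2×10^6 /ml, preincubated 15 min with compound in 0.3% DMSO, then 30 min with [3H-methyl]dThd (1 μCi, 0.15 nmole/ml). DNA incorporation compared with DMSO-only control.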

[2] = system: RNA synthesis in HL-60 cells; test: Inhibition of [5-3H]Cyd incorporation into RNA of HL-60 cells; type: cell-based, human; settings: Homo sapiens, HL-60, 0.5 h
Summary of the method: (§1)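 HL-60 cells (2.2×10^6/ml) preincubated 15 min with compound (0.03 mg/ml, 0.3% DMSO), then 30 min with [5-3H]Cyd (5 μCi, 0.23 nmol/ml) for RNA or [2,3,4,5-3H]L-Leu (0.5 μCi, 0.004 nmol/ml) for protein. Inhibition relative to DMSO-only incorporation.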

[3] = system: protein synthesis in HL-60 cells; test: Inhibition of [2,3,4,5-3H]L-Leu incorporation into protein of HL-60 cells; type: cell-based, human; settings: Homo sapiens
Summary of the method: as §1

[4] = system: HL-60 cells; test: HL-60 cell growth inhibition, 72 h; type: cell-based, human; settings: HL-60, 72 h; for IC50: read-out: Cell Growth Inhibition, IC50
Summary of the method: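 HL-60 cells seeded at 1.5×10^5/ml in RPMI 1640, exposed 72 h at 37° C, 5% CO2 to compound at 0.0025-0.05 mg/ml in 0.1% DMSO. Viable cells counted by trypan blue exclusion; IC50 from median-effect analysis over three to five dose levels versus DMSO control.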

[5] = system: Lewis lung carcinoma; test: Lewis lung carcinoma survival time evaluation in C57BL/6 mice; type: in vivo, mouse; parameters: Survival Time, individual mice / AST (average survival time): unit not given here; settings: for AST (average survival time) / Day #7 AWC (average weight change) / N/T (29 day survivors/total mice) / Survival Time, individual mice / % ILS (increase in lifespan): day 1, QDX4 ip; for % ILS (increase in lifespan): 25% or greater indicates activity
Excerpt: Tumor-Lewis Lung C. 3 × 10^5 cells (ip) in C57BL/6, FEM, 19-21
(§2) Diluent-CMC + 1 drop Tween 80
(§3) Schedule: Day 1, QDX4 (ip)

[6] = system: Carcinoma EO771; test: Carcinoma EO771 (E07713 mammary adenocarcinoma) survival time evaluation in C57BL/6 mice; type: in vivo
Excerpt: Tumor-Carcinoma EO771 3 × 10^5 cells (ip) in C57BL/6, FEM,
as §2, §3

[7] = system: B-16 Melanoma; test: B-16 melanoma in mice; type: in vivo, mouse; settings: day 1 QDX4
Excerpt: Chemotherapeutic Effects of Acronycine and TSA-35 against Solid

[8] = system: Ehrlich ascites; settings: ip, 30 × 1 × 10 mg/kg/day; cited from earlier work
[9] = system: Adrenocarcinoma 755; settings: ip, 30 × 1 × 10 mg/kg/day; cited from earlier work
[10] = system: L5178Y cells; settings: cultured L5178Y cells; cited from earlier work
[11] = Table 8, 25 mg/kg ip, day 1 QDX4
[12] = Table 8, 50 mg/kg ip, day 1 QDX4
[13] = Table 8, 100 mg/kg ip, day 1 QDX4
[14] = Table 8, 150 mg/kg ip, day 1 QDX4

## COc1cc2c(c3c1c(=O)c1ccccc1n3C)C=CC(C)(C)O2 [Compound 1, Acronycine]
[1]
  inhibition at 30 µg/mL: ~90%
[2]; read-out: % Inhibition of Precursor Incorporation, RNA, at 0.03 mg/mL
  inhibition at 30 µg/mL: 21.3%
[3]; HL-60, read-out: % Inhibition of Precursor Incorporation, Protein, at 0.03 mg/mL
  inhibition at 30 µg/mL: 25.4%
[4]
  cell growth inhibition, in words: significantly active
[5]; 25 mg/kg
  AST (average survival time): 14.6
  Day #7 AWC (average weight change): -0.6 g
  N/T (29 day survivors/total mice): 0/5
  Survival Time, individual mice: 14 and 17
  % ILS (increase in lifespan): 40%
[5]; 50 mg/kg
  AST (average survival time): 14.6
  Day #7 AWC (average weight change): -0.8 g
  N/T (29 day survivors/total mice): 0/5
  Survival Time, individual mice: 14 and 15
  % ILS (increase in lifespan): 40%
[5]; [11]
  % ILS: 40%
  Day 7 BWC (body weight change): -0.6 g
  N/T (40 day tumorfree mice/total): 0/5
[5]; [12]
  % ILS: 34%
  Day 7 BWC (body weight change): -0.5 g
  N/T (40 day tumorfree mice/total): 0/15
[5]; [13]
  N/T (40 day tumorfree mice/total): 0/5
  death: 5/5
[6]; 50 mg/kg, day 1, QDX4 ip
  AST (average survival time): 13.4
  Day #7 AWC (average weight change): +0.4 g
  N/T (22 day survivors/total mice): 0/5
  Survival Time, individual mice: 11 and 14 and 17
[6]; 50 mg/kg, day 1, QDX4 ip, 25% or greater indicates activity
  % ILS (increase in lifespan): 26%
[6]; 100 mg/kg daily for 4 days ip
  toxicity induced deaths: 1 out of 3
[6]; 100 mg/kg, day 1, QDX4 ip
  AST (average survival time): 11.0
  Day #7 AWC (average weight change): +0.5 g
  N/T (22 day survivors/total mice): 0/3
[6]; 100 mg/kg, day 1, QDX4 ip, 25% or greater indicates activity
  % ILS (increase in lifespan): 4%
[6]; 100 mg/kg, day 1, QDX4 ip, t = died of toxicity
  Survival Time, individual mice: 4t and 10 and 12
[6]; [12]
  % ILS: 26%
  Day 7 BWC (body weight change): +0.4 g
  N/T (40 day tumorfree mice/total): 0/5
[6]; [13]
  % ILS: 4%
  N/T (40 day tumorfree mice/total): 0/3
  death: 1/3
[7]; 50 mg/kg ip
  % ILS: 24%
  Day 7 BWC (body weight change): -0.6 g
  N/T (40 day tumorfree mice/total): 0/5
[8]
  Percent activity: 0(1) Percent
[9]
  Percent activity: 40(10) Percent
[10]
  inhibition of incorporation of extracellular nucleosides into DNA and RNA, in words: inhibit the incorporation of extracellular nuclosides into the DNA and RNA

## COc1c(OC)c(OC)c2c(c1O)c(=O)c1ccc(O)c(OC)c1n2C [Compound 31, Glyfoline]
[1]
  inhibition at 30 µg/mL: 93.5%
[2]; at 0.03 mg/mL, read-out: % Inhibition of Precursor Incorporation, RNA
  inhibition at 30 µg/mL: 65.7%
[3]; HL-60, at 0.03 mg/mL, read-out: % Inhibition of Precursor Incorporation, Protein
  inhibition at 30 µg/mL: 90.7%
[4]
  Cell Growth Inhibition, IC50: 0.4 mg/L
  cell growth inhibition, in words: most potent compound in this series; also recorded: significant activity against leukemic cells in vitro
  IC50: 1.11 µM
[4]; Homo sapiens
  IC50: 0.4 µg/mL and 1.1 µM
[5]; 25 mg/kg
  AST (average survival time): 14.8
  N/T (29 day survivors/total mice): 0/5
  % ILS (increase in lifespan): 42%
[5]; 25 mg/kg, listed as TSA-35
  Survival Time, individual mice: 14 and 18
[5]; 50 mg/kg
  AST (average survival time): > 20
  N/T (29 day survivors/total mice): 2 out of 5
  % ILS (increase in lifespan): > 92%
[5]; 50 mg/kg, listed as TSA-35
  N/T (29 day survivors/total mice): 2/5
  Survival Time, individual mice: 14 and > 29
[5]; [11]
  % ILS: 42%
  N/T (40 day tumorfree mice/total): 0/5
[5]; [12]
  % ILS: > 59%
  N/T (40 day tumorfree mice/total): 2/15
[5]; [13]
  % ILS: > 46%
  N/T (40 day tumorfree mice/total): 1/10
[5]; [14]
  % ILS: > 79%
  N/T (40 day tumorfree mice/total): 2/8
[5]; mouse, in vivo
  toxicity to mice, in words: less toxicity to mice than that of compound 1
[5]; mouse, in vivo, ip, 25 mg/kg
  Day 7 BWC (body weight change): +0.2 g
[5]; mouse, in vivo, ip, 50 mg/kg
  Day 7 BWC (body weight change): +0.3 g
[5]; mouse, in vivo, ip, 100 mg/kg
  Day 7 BWC (body weight change): +0.5 g
[5]; mouse, in vivo, ip, 150 mg/kg
  Day 7 BWC (body weight change): -0.3 g
[6]; 50 mg/kg, day 1, QDX4 ip
  AST (average survival time): 12.4
  N/T (22 day survivors/total mice): 0/5
[6]; 50 mg/kg, day 1, QDX4 ip, listed as TSA-35
  Survival Time, individual mice: 10 and 11 and 12 and 14 and 15
[6]; 100 mg/kg, day 1, QDX4 ip
  AST (average survival time): > 15
  N/T (22 day survivors/total mice): 1/3
[6]; 100 mg/kg, day 1, QDX4 ip, t = died of toxicity, listed as TSA-35
  Survival Time, individual mice: 11 and > 22
[6]; ip, 50 mg/kg, 24 h
  % ILS (increase in lifespan): 17%
[6]; ip, 100 mg/kg, 24 h
  % ILS (increase in lifespan): > 39%
[6]; mouse, in vivo
  toxicity induced deaths: no deaths
[6]; mouse, in vivo, ip, 25 mg/kg
  Day 7 BWC (body weight change): +0.6 g
[6]; mouse, in vivo, ip, 50 mg/kg
  Day 7 BWC (body weight change): +0.3 g
[7]; 25 mg/kg ip
  % ILS: 31%
  N/T (40 day tumorfree mice/total): 0/5
[7]; 50 mg/kg ip
  % ILS: 40%
  N/T (40 day tumorfree mice/total): 0/5
[7]; 150 mg/kg ip
  % ILS: > 56%
  N/T (40 day tumorfree mice/total): 1/5
